The test system of series [1] is HeLa. The experiment in a line: Antiproliferation activity against human HeLa cells assessed as reduction in cell growth measured after 48 to 72 hrs by CCK-8 assay. In kind it is functional, cell-based.
The test system of series [2] is SiHa. The series is described as follows: Antiproliferation activity against human SiHa cells assessed as reduction in cell growth measured after 48 to 72 hrs by CCK-8 assay. It is filed as functional, cell-based.
The nature of series [3]: Antiproliferation activity against human MS751 cells assessed as reduction in cell growth measured after 48 to 72 hrs by CCK-8 assay. In kind it is functional, cell-based.
The target of series [4] is Tubulin (Sus scrofa, UniProt P02554+P02550). The experiment in a line: Inhibition of pig brain tubulin polymerization by spectrophotometeric analysis. The arrangement: species or system Sus scrofa domesticus.
Series [5] in a line: Retention time of the compound. In kind it is physicochemical.
The target in series [6] is T1, Tubulin beta (Homo sapiens) (UniProt P68371+Q9H4B7+Q13509+P04350+Q3ZCM7+P07437+Q13885+Q9BVA1+Q9BUF5+A6NNZ2). The experiment in a line: Binding affinity to beta-tubulin colchicine binding site in human HeLa cells assessed as decrease of adduct formation by measuring gray value measured at 25 uM incubated for 2 hrs followed by addition of EBI measured after 1.5 hrs by EBI competition based Western blotting analysis. The settings on record: time 3.5 hrs. It is filed as cell-based. Background: Immunoblotting shows a protein as a band on a membrane.

For series [7], the target named is T1, Tubulin beta (Homo sapiens). The experiment in a line: Binding affinity to beta-tubulin colchicine binding site in human HeLa cells assessed as decrease of adduct formation by measuring gray value measured at 5 uM incubated for 2 hrs followed by addition of EBI measured after 1.5 hrs by EBI competition based Western blotting analysis. The settings on record: time 3.5 hrs. It is filed as cell-based.

In series [8] the test system is HCT-116. The experiment in a line: Antiproliferation activity against human HCT-116 cells assessed as reduction in cell growth. It is filed as functional, cell-based.
The test system of series [9] is A549. The series is described as follows: Antiproliferation activity against human A549 cells assessed as reduction in cell growth. In kind it is functional, cell-based.
For series [10], the species on record is Bos taurus. The experiment in a line: Inhibition of calf brain tubulin polymerization upto 50 uM measured after 40 mins by spectrophotometric analysis.

As a reminder, the IC50 is the concentration at which inhibition is half-maximal.

The structures appear in SMILES notation. The source made the active and inactive calls. The calls are words filed in the database; no cut-off is given here.

In the case of `COc1cc2c(c(OC)c1OC)-c1ccc(OC)c(=O)cc1[C@@H](NC(C)=O)CC2` [COLCHICINE], the values for the half-maximal inhibitory concentration (IC50) in [1], in [2] and in series [3] were 42 nM, 45 nM and 35 nM, respectively.
`CCOC(=O)Oc1cc(-c2cncnc2-c2cc(OC)c(OC)c(OC)c2)ccc1OC`: the IC50 was 650 nM in series [1], 1890 nM in series [2], 780 nM in series [3] and above 100 µM in series [4].
Consider `COc1ccc(-c2cncnc2-c2cc(OC)c(OC)c(OC)c2)cc1Cl`, for which the IC50 is 320 nM in [1], 1330 nM in [2], 790 nM in series [3] and 53.1 µM in series [4]. Moreover, the Retention_time in series [5] was determined as 2.23 min.
Regarding `COc1ccc(-c2cncnc2-c2cc(OC)c(OC)c(OC)c2)nc1`, the IC50 in series [1] was 470 nM; in series [2], 1750 nM; in [3], 830 nM; in series [4], 63.7 µM.
Consider `COc1cc(-c2ncncc2-c2ccc3c(c2)OCO3)cc(OC)c1OC`, for which the IC50 worked out at 1160 nM in series [1], 5400 nM in series [2] and 1360 nM in [3].
Consider `CCOc1ccc(-c2cncnc2-c2cc(OC)c(OC)c(OC)c2)cc1F`, for which the IC50 in series [1] is 470 nM; in series [2], 800 nM; in series [3], 750 nM; in series [4] it was 17.1 µM.
As to `CNC(=O)c1ccc(-c2cncnc2-c2cc(OC)c(OC)c(OC)c2)cc1`, the IC50 in [1] was 1470 nM; in [2] it was 10900 nM; in series [3], 13200 nM.
For `COc1cc(-c2ncncc2-c2ccc3cc[nH]c3c2)cc(OC)c1OC`, the IC50 in series [1] turned out to be 770 nM; in series [2], 2180 nM; in [3], 1090 nM; in [4], 62.8 µM.
Take `CCSc1ccc(-c2cncnc2-c2cc(OC)c(OC)c(OC)c2)cc1`: the IC50 in series [1] was found to be 370 nM; in series [2] it was 1030 nM; in series [3], 1560 nM.
Turning to `COc1cc(-c2ncncc2-c2ccc(B(O)O)cc2)cc(OC)c1OC`, the IC50 in [1] was 4000 nM; in [2], 17500 nM; in [3], 32400 nM.
For the compound `CC[C@]1(O)C[C@H]2CN(CCc3c([nH]c4ccccc34)[C@@](C(=O)OC)(c3cc4c(cc3OC)N(C=O)[C@H]3[C@@](O)(C(=O)OC)[C@H](OC(C)=O)[C@]5(CC)C=CCN6CC[C@]43[C@@H]65)C2)C1`, the Activity in series [6] came to 0.98; in [7] it was 1.12.
For `COc1cc(-c2ncncc2-c2ccc(SC)cc2)cc(OC)c1OC`, the IC50 in [1] turned out to be 220 nM; in [2] it was 560 nM; in series [3] it was 130 nM; in [4], 9.3 µM.
As to `COc1cc(-c2ncncc2-c2ccc(C(N)=O)cc2)cc(OC)c1OC`, the IC50 in series [1], in series [2] and in series [3] was above 100000 nM in each case.
Take `COc1cc(-c2ncncc2-c2cccc3ccccc23)cc(OC)c1OC`: the IC50 in [8] and in [9] was 2500 nM in each case. Besides, the result in series [10] was Active.
With `COc1cc(-c2ncncc2-c2ccc(C(=O)N(C)C)cc2)cc(OC)c1OC`, the IC50 was determined as 790 nM in [1], 20200 nM in series [2] and 1370 nM in series [3].
Turning to `COc1ccc(-c2cncnc2-c2cc(OC)c(OC)c(OC)c2)cc1F`, the IC50 was 500 nM in series [1], 3340 nM in [2], 1100 nM in [3] and 29.9 µM in series [4].
For `COc1ccc(-c2cncnc2-c2cc(OC)c(OC)c(OC)c2)cc1O`, in that order: 280 nM, 2750 nM, 830 nM and 13.4 µM.
In the case of `COc1cc(-c2ncncc2-c2ccc(OCC(F)(F)F)cc2)cc(OC)c1OC`, the figures for the IC50 in series [1], in series [2] and in [3] were 10200 nM, 33300 nM and 9000 nM, respectively.
On to `COc1ccc(-c2cncnc2-c2cc(OC)c(OC)c(OC)c2)cc1`, for which the IC50 in series [1] was 1140 nM; in series [2], 2850 nM; in series [3], 1300 nM; in [4] it was 71.2 µM.
For `COc1cc(-c2ncncc2-c2ccc(OC(C)C)cc2)cc(OC)c1OC`, the IC50 in [1] stood at 8360 nM; in series [2] it was 9970 nM; in series [3], 33900 nM.
`CCOc1ccc(-c2cncnc2-c2cc(OC)c(OC)c(OC)c2)cc1C(F)(F)F`: the IC50 in series [1] is 790 nM; in [2], 20000 nM; in [3] it was 25000 nM; in series [4], above 100 µM.
With `COc1cc(-c2ncncc2-c2ccc(Br)cc2)cc(OC)c1OC`, the results for the IC50 in series [1], in [2] and in series [3] were 500 nM, 2960 nM and 2840 nM, respectively.
On to `CCOc1ccc(-c2cncnc2-c2cc(OC)c(OC)c(OC)c2)cc1`, for which the concentration for half-maximal inhibition (IC50) worked out at 250 nM in series [1], 640 nM in series [2], 220 nM in series [3] and 3.7 µM in [4].

The values are drawn from ChEMBL document CHEMBL5154820 (Eur J Med Chem, 2022).
